Reference: patent US20070128217A1 (priority 2003, published 2007)

Assays:
[1] = tested on: control sera (pooled serum of ten healthy LUMC hospital workers; commercial negative donor pooled serum from the Dutch bloodbank); format: binding, human; parameters: Binding of Control serum LUMC to linear peptides / Binding of Control serum Blood-bank to linear peptides / Binding of Control serum LUMC to looped peptides / Binding of Control Serum Blood-Bank to Looped peptides / Binding of Control serum LUMC to linear peptides of the protein M of SARS-CoV Urbani / Binding of Control serum Blood-bank to linear peptides of the protein M of SARS-CoV Urbani / Binding of Control serum LUMC to looped peptides of the protein M of SARS-CoV Urbani / Binding of Control Serum Blood-Bank to Looped peptides of the protein M of SARS-CoV Urbani: unit not given here
[2] = tested on: antibodies in sera from SARS patients (sera 1a, 1b, 2, 6, 37, 62, London, SARS-yellow, SARS-green); format: binding, human; parameters: Binding of serum 6 to linear peptides of protein X1 of SARS-CoV Urbani / Binding of serum 37 to linear peptides of protein X1 of SARS-CoV Urbani / Binding of serum 6 to looped/cyclic peptide (PEPSCAN-ELISA) / Binding of serum 37 to looped/cyclic peptide (PEPSCAN-ELISA) / Binding of serum 37 to looped/cyclic peptides of protein X1 of SARS-CoV Urbani / Binding of serum 6 to linear peptides of protein X2 / Binding of serum 37 to linear peptides of protein X2 / Binding of serum 37 to looped/cyclic peptides of protein X2 of SARS-CoV Urbani / Binding of serum 6 to linear peptides of protein M of SARS-CoV Urbani / Binding of serum 37 to linear peptides of protein M of SARS-CoV Urbani / Binding of serum 6 to looped/cyclic peptides of protein M of SARS-CoV Urbani / Binding of serum 37 to looped/cyclic peptides of protein M of SARS-CoV Urbani / Binding of serum 6 to linear peptides of protein X3 of SARS-CoV Urbani / Binding of serum 37 to linear peptides of protein X3 of SARS-CoV Urbani / Binding of serum 37 to looped/cyclic peptides of protein X3 of SARS-CoV Urbani / Binding of serum 6 to linear peptides of protein X4 of SARS-CoV Urbani / Binding of serum 37 to linear peptides of protein X4 of SARS-CoV Urbani / Binding of serum 37 to looped/cyclic peptides of protein X4 of SARS-CoV Urbani / Binding of serum 6 to linear peptides of protein X5 of SARS-CoV Urbani / Binding of serum 37 to linear peptides of protein X5 of SARS-CoV Urbani / Binding of serum 37 to looped/cyclic peptides of protein X5 of SARS-CoV Urbani / Binding of serum 6 to linear peptides of protein N of SARS-CoV Urbani / Binding of serum 37 to linear peptides of protein N of SARS-CoV Urbani / Binding of serum 6 to linear peptide (PEPSCAN-ELISA) / Binding of serum 1a to looped/cyclic peptides of protein N of SARS-CoV Urbani / Binding of serum 1b to looped/cyclic peptides of protein N of SARS-CoV Urbani / Binding of serum 2 to looped/cyclic peptides of protein N of SARS-CoV Urbani / Binding of serum 6 to looped/cyclic peptides of protein N of SARS-CoV Urbani / Binding of serum 37 to looped/cyclic peptides of protein N of SARS-CoV Urbani / Binding of serum 62 to looped/cyclic peptides of protein N of SARS-CoV Urbani / Binding of serum London to looped/cyclic peptides of protein N of SARS-CoV Urbani / Binding of serum SARS-green to looped/cyclic peptides of protein N of SARS-CoV Urbani: unit not given here
[3] = tested on: rabbit serum obtained by immunizing a rabbit with the SARS-CoV strain Frankfurt 1; format: binding; parameters: Binding of a rabbit serum to linear peptides / Binding of a rabbit serum to looped peptides / Rabbit serum linear peptides / Rabbit serum looped peptides / Binding of a rabbit serum to linear peptides of protein N of SARS-CoV Urbani (Rabbit serum linear peptides) / Binding of a rabbit serum to looped/cyclic peptides of protein N of SARS-CoV Urbani (Rabbit serum looped peptides): unit not given here

In the case of LKILVRYNTRGNTYS, the “Binding of Control Serum Blood-Bank to Looped peptides” value [1] is reported as 0.4, the “Binding of Control serum Blood-bank to linear peptides” value [1] is reported as 0.7 and the “Binding of Control serum LUMC to linear peptides” value [1] is reported as 0.5. For the same sequence, the “Binding of Control serum LUMC to looped peptides” value [1] was 0.6, the “Binding of serum 1a to linear peptides of protein X5 of SARS-CoV Urbani” value [2] was 0.7 and the “Binding of serum 1a to looped/cyclic peptides of protein X5 of SARS-CoV Urbani” value [2] was 0.5. The “Binding of serum 1b to linear peptides of protein X5 of SARS-CoV Urbani” value [2] was 0.6, the “Binding of serum 1b to looped/cyclic peptides of protein X5 of SARS-CoV Urbani” value [2] was 0.4 and the “Binding of serum 2 to linear peptides of protein X5 of SARS-CoV Urbani” value [2] was 0.8. For the same sequence, the “Binding of serum 2 to looped/cyclic peptides of protein X5 of SARS-CoV Urbani” value [2] was 0.6, the “Binding of serum 6 to linear peptides of protein X5 of SARS-CoV Urbani” value [2] was 0.8 and the “Binding of serum 6 to looped/cyclic peptides of protein X5 of SARS-CoV Urbani” value [2] was 0.5. The “Binding of serum 37 to linear peptides of protein X5 of SARS-CoV Urbani” value [2] was 0.7, the “Binding of serum 37 to looped/cyclic peptides of protein X5 of SARS-CoV Urbani” value [2] was 0.5 and the “Binding of serum 62 to linear peptides of protein X5 of SARS-CoV Urbani” value [2] was 0.8. For the same sequence, the “Binding of serum 62 to looped/cyclic peptides of protein X5 of SARS-CoV Urbani” value [2] was 0.7, the “Binding of serum London to linear peptides of protein X5 of SARS-CoV Urbani” value [2] was 0.7 and the “Binding of serum London to looped/cyclic peptides of protein X5 of SARS-CoV Urbani” value [2] was 0.2. The “Binding of serum SARS-green to linear peptides of protein X5 of SARS-CoV Urbani” value [2] was 0.6, the “Binding of serum SARS-green to looped/cyclic peptides of protein X5 of SARS-CoV Urbani” value [2] was 0.4 and the “Binding of serum SARS-yellow to linear peptides of protein X5 of SARS-CoV Urbani” value [2] was 0.3. The “Binding of serum SARS-yellow to looped/cyclic peptides of protein X5 of SARS-CoV Urbani” value [2] was 0.8, the “Rabbit serum linear peptides” value [3] was 0.9 and the “Rabbit serum looped peptides” value [3] was 0.1.

LKQLLEQWNLVIGFL was tested, and the “Binding of Control Serum Blood-Bank to Looped peptides of the protein M of SARS-CoV Urbani” value [1] was 0.7, the “Binding of Control serum Blood-bank to linear peptides of the protein M of SARS-CoV Urbani” value [1] was 0.7 and the “Binding of Control serum LUMC to linear peptides of the protein M of SARS-CoV Urbani” value [1] was 0.3. For the same sequence, the “Binding of Control serum LUMC to looped peptides of the protein M of SARS-CoV Urbani” value [1] was 0.7, the “Binding of serum 1a to linear peptides of protein M of SARS-CoV Urbani” value [2] was 0.7 and the “Binding of serum 1a to looped/cyclic peptides of protein M of SARS-CoV Urbani” value [2] was 0.6. The “Binding of serum 1b to linear peptides of protein M of SARS-CoV Urbani” value [2] was 0.5, the “Binding of serum 1b to looped/cyclic peptides of protein M of SARS-CoV Urbani” value [2] was 0.6 and the “Binding of serum 2 to linear peptides of protein M of SARS-CoV Urbani” value [2] was 0.6. The “Binding of serum 2 to looped/cyclic peptides of protein M of SARS-CoV Urbani” value [2] was 0.4, the “Binding of serum 6 to linear peptides of protein M of SARS-CoV Urbani” value [2] was 0.7 and the “Binding of serum 6 to looped/cyclic peptides of protein M of SARS-CoV Urbani” value [2] was 0.8. The “Binding of serum 37 to linear peptides of protein M of SARS-CoV Urbani” value [2] was 0.7, the “Binding of serum 37 to looped/cyclic peptides of protein M of SARS-CoV Urbani” value [2] was 0.5 and the “Binding of serum 62 to linear peptides of protein M of SARS-CoV Urbani” value [2] was 0.7. For the same sequence, the “Binding of serum 62 to looped/cyclic peptides of protein M of SARS-CoV Urbani” value [2] was 0.7, the “Binding of serum London to linear peptides of protein M of SARS-CoV Urbani” value [2] was 1.0 and the “Binding of serum London to looped/cyclic peptides of protein M of SARS-CoV Urbani” value [2] was 0.2. For the same sequence, the “Binding of serum SARS-green to linear peptides of protein M of SARS-CoV Urbani” value [2] was 0.2, the “Binding of serum SARS-green to looped/cyclic peptides of protein M of SARS-CoV Urbani” value [2] was 0.4 and the “Binding of serum SARS-yellow to linear peptides of protein M of SARS-CoV Urbani” value [2] was 0.1. For the same sequence, the “Binding of serum SARS-yellow to looped/cyclic peptides of protein M of SARS-CoV Urbani” value [2] was 0.7, the “Rabbit serum linear peptides” value [3] was 0.2 and the “Rabbit serum looped peptides” value [3] was 0.1.
